Results reported in the NIST ThermoML archive (doi:10.1016/j.tca.2008.09.006).
± gives the expanded uncertainty stated by the source.

Test: xn = mol fraction of the nth substance listed
Settings: 303.15 K, 101 kPa, Liquid; for viscosity: Capillary tube (Ostwald / Ubbelohde) method; for mass density: Vibrating tube method

For `C1CCCCC1` [cyclohexane] + CCCCN(CCCC)CCCC, the viscosity (x2 = 0) was 0.819 ± 0.006 mPa·s and the mass density (x2 = 0) was 769.16 ± 0.12 kg/m3.

Molecule `C1CCCCC1` [cyclohexane] + CCCO has a viscosity (x2 = 0) of 0.819 ± 0.006 mPa·s, a viscosity (x2 = 0.1021) of 0.832 ± 0.006 mPa·s and a viscosity (x2 = 0.2112) of 0.872 ± 0.006 mPa·s. The viscosity (x2 = 0.3122) was 0.922 ± 0.007 mPa·s, the viscosity (x2 = 0.4211) was 0.986 ± 0.007 mPa·s and the viscosity (x2 = 0.5151) was 1.053 ± 0.007 mPa·s. It also gave a viscosity (x2 = 0.6203) of 1.148 ± 0.008 mPa·s, a viscosity (x2 = 0.7208) of 1.264 ± 0.008 mPa·s and a viscosity (x2 = 0.8143) of 1.398 ± 0.009 mPa·s. For the same molecule, the viscosity (x2 = 0.9079) was 1.555 ± 0.01 mPa·s, the mass density (x2 = 0) was 769.16 ± 0.12 kg/m3 and the mass density (x2 = 0.1021) was 769.52 ± 0.12 kg/m3. The mass density (x2 = 0.2112) was 770.68 ± 0.13 kg/m3, the mass density (x2 = 0.3122) was 772.37 ± 0.13 kg/m3 and the mass density (x2 = 0.4211) was 774.63 ± 0.13 kg/m3. It also gave a mass density (x2 = 0.5151) of 776.9 ± 0.13 kg/m3, a mass density (x2 = 0.6203) of 779.94 ± 0.13 kg/m3 and a mass density (x2 = 0.7208) of 783.15 ± 0.14 kg/m3. The mass density (x2 = 0.8143) was 786.73 ± 0.14 kg/m3 and the mass density (x2 = 0.9079) was 790.83 ± 0.14 kg/m3.

Work on `C1CCCCC1` [cyclohexane] + CCN(CC)CC yielded a viscosity (x2 = 0) of 0.819 ± 0.006 mPa·s and a mass density (x2 = 0) of 769.16 ± 0.12 kg/m3.

In the case of `CCCO` [propan-1-ol] + C1CCCCC1, the viscosity (x1 = 1) is reported as 1.727 ± 0.011 mPa·s and the mass density (x1 = 1) is reported as 795.66 ± 0.14 kg/m3.

In the case of `CCCO` [propan-1-ol] + CCCCN(CCCC)CCCC, the viscosity (x2 = 0) is reported as 1.727 ± 0.011 mPa·s and the mass density (x2 = 0) is reported as 795.66 ± 0.14 kg/m3.

For `CCCO` [propan-1-ol] + CCN(CC)CC, the viscosity (x2 = 0) was 1.727 ± 0.011 mPa·s and the mass density (x2 = 0) was 795.66 ± 0.14 kg/m3.

In the case of `CCCCN(CCCC)CCCC` [tributylamine] + C1CCCCC1, the viscosity (x1 = 0.1023) is reported as 0.848 ± 0.006 mPa·s, the viscosity (x1 = 0.2014) is reported as 0.878 ± 0.007 mPa·s and the viscosity (x1 = 0.3008) is reported as 0.914 ± 0.007 mPa·s. For the same molecule, the viscosity (x1 = 0.4016) was 0.947 ± 0.007 mPa·s, the viscosity (x1 = 0.5002) was 0.985 ± 0.007 mPa·s and the viscosity (x1 = 0.6018) was 1.025 ± 0.007 mPa·s. It also gave a viscosity (x1 = 0.7021) of 1.058 ± 0.007 mPa·s, a viscosity (x1 = 0.8012) of 1.096 ± 0.008 mPa·s and a viscosity (x1 = 0.9024) of 1.13 ± 0.008 mPa·s. It also gave a viscosity (x1 = 1) of 1.167 ± 0.008 mPa·s, a mass density (x1 = 0.1023) of 768.32 ± 0.13 kg/m3 and a mass density (x1 = 0.2014) of 768.09 ± 0.13 kg/m3. For the same molecule, the mass density (x1 = 0.3008) was 768.17 ± 0.13 kg/m3, the mass density (x1 = 0.4016) was 768.42 ± 0.13 kg/m3 and the mass density (x1 = 0.5002) was 768.78 ± 0.13 kg/m3. For the same molecule, the mass density (x1 = 0.6018) was 769.15 ± 0.14 kg/m3, the mass density (x1 = 0.7021) was 769.57 ± 0.14 kg/m3 and the mass density (x1 = 0.8012) was 769.85 ± 0.14 kg/m3. The mass density (x1 = 0.9024) was 770.12 ± 0.15 kg/m3 and the mass density (x1 = 1) was 770.39 ± 0.15 kg/m3.

With `CCCCN(CCCC)CCCC` [tributylamine] + CCCO the viscosity (x1 = 0.0986) was 1.695 ± 0.011 mPa·s, the viscosity (x1 = 0.1991) was 1.66 ± 0.011 mPa·s and the viscosity (x1 = 0.2978) was 1.619 ± 0.01 mPa·s. The viscosity (x1 = 0.4984) was 1.514 ± 0.01 mPa·s, the viscosity (x1 = 0.5992) was 1.449 ± 0.01 mPa·s and the viscosity (x1 = 0.6031) was 1.445 ± 0.01 mPa·s. The viscosity (x1 = 0.6981) was 1.378 ± 0.009 mPa·s, the viscosity (x1 = 0.7989) was 1.302 ± 0.009 mPa·s and the viscosity (x1 = 0.8988) was 1.233 ± 0.008 mPa·s. For the same molecule, the viscosity (x1 = 1) was 1.167 ± 0.008 mPa·s, the mass density (x1 = 0.0986) was 791.71 ± 0.14 kg/m3 and the mass density (x1 = 0.1991) was 788.31 ± 0.15 kg/m3. The mass density (x1 = 0.2978) was 785.47 ± 0.15 kg/m3, the mass density (x1 = 0.4984) was 780.18 ± 0.15 kg/m3 and the mass density (x1 = 0.5992) was 777.82 ± 0.15 kg/m3. For the same molecule, the mass density (x1 = 0.6031) was 777.75 ± 0.15 kg/m3, the mass density (x1 = 0.6981) was 775.71 ± 0.15 kg/m3 and the mass density (x1 = 0.7989) was 773.78 ± 0.15 kg/m3. For the same molecule, the mass density (x1 = 0.8988) was 771.94 ± 0.15 kg/m3 and the mass density (x1 = 1) was 770.39 ± 0.15 kg/m3.

With `CCN(CC)CC` [triethylamine] + C1CCCCC1 the viscosity (x1 = 0.0995) was 0.697 ± 0.006 mPa·s, the viscosity (x1 = 0.1947) was 0.614 ± 0.006 mPa·s and the viscosity (x1 = 0.291) was 0.548 ± 0.005 mPa·s. The viscosity (x1 = 0.3963) was 0.495 ± 0.005 mPa·s, the viscosity (x1 = 0.4999) was 0.453 ± 0.005 mPa·s and the viscosity (x1 = 0.5961) was 0.42 ± 0.005 mPa·s. For the same molecule, the viscosity (x1 = 0.6989) was 0.392 ± 0.005 mPa·s, the viscosity (x1 = 0.7968) was 0.374 ± 0.005 mPa·s and the viscosity (x1 = 0.8973) was 0.348 ± 0.005 mPa·s. For the same molecule, the viscosity (x1 = 1) was 0.33 ± 0.005 mPa·s, the mass density (x1 = 0.0995) was 761.78 ± 0.13 kg/m3 and the mass density (x1 = 0.1947) was 755.57 ± 0.13 kg/m3. It also gave a mass density (x1 = 0.291) of 749.84 ± 0.14 kg/m3, a mass density (x1 = 0.3963) of 744.18 ± 0.14 kg/m3 and a mass density (x1 = 0.4999) of 739.03 ± 0.14 kg/m3. It also gave a mass density (x1 = 0.5961) of 734.6 ± 0.15 kg/m3, a mass density (x1 = 0.6989) of 730.17 ± 0.15 kg/m3 and a mass density (x1 = 0.7968) of 726.09 ± 0.16 kg/m3. For the same molecule, the mass density (x1 = 0.8973) was 722.21 ± 0.16 kg/m3 and the mass density (x1 = 1) was 718.45 ± 0.17 kg/m3.

Work on `CCN(CC)CC` [triethylamine] + CCCO yielded a viscosity (x1 = 0.2007) of 1.189 ± 0.008 mPa·s, a viscosity (x1 = 0.295) of 1.007 ± 0.007 mPa·s and a viscosity (x1 = 0.3226) of 0.954 ± 0.007 mPa·s. The viscosity (x1 = 0.393) was 0.845 ± 0.007 mPa·s, the viscosity (x1 = 0.4852) was 0.719 ± 0.006 mPa·s and the viscosity (x1 = 0.6128) was 0.574 ± 0.006 mPa·s. For the same molecule, the viscosity (x1 = 0.7308) was 0.47 ± 0.005 mPa·s, the viscosity (x1 = 0.7637) was 0.444 ± 0.005 mPa·s and the viscosity (x1 = 0.8776) was 0.375 ± 0.005 mPa·s. The viscosity (x1 = 1) was 0.33 ± 0.005 mPa·s, the mass density (x1 = 0.2007) was 783.21 ± 0.15 kg/m3 and the mass density (x1 = 0.295) was 775.99 ± 0.15 kg/m3. The mass density (x1 = 0.3226) was 773.73 ± 0.15 kg/m3, the mass density (x1 = 0.393) was 767.95 ± 0.15 kg/m3 and the mass density (x1 = 0.4852) was 760.11 ± 0.16 kg/m3. It also gave a mass density (x1 = 0.6128) of 749.28 ± 0.16 kg/m3, a mass density (x1 = 0.7308) of 739.53 ± 0.16 kg/m3 and a mass density (x1 = 0.7637) of 736.85 ± 0.16 kg/m3. The mass density (x1 = 0.8776) was 727.89 ± 0.17 kg/m3 and the mass density (x1 = 1) was 718.45 ± 0.17 kg/m3.
